Series [1] relates to patients with major depressive disorder. Kind of series: Double-blind, randomized, placebo-controlled, active reference study in patients with major depressive disorder. It counts as in vivo, human. The following applies: for change from baseline in MADRS total score, Mean ± SD / MADRS total score, Difference to Placebo: week 6. An excerpt:
This randomized, double-blind, fixed-dose, placebo-controlled, active reference study recruited 32 randomized patients in accordance with the principles of Good Clinical Practice [ICH (1996). Harmonized Tripartite Guideline E6: Guideline for Good Clinical Practice (http://www.fda.gov/downloads/drugs/guidancecomplianceregulatoryinformation/gui dances/ucm073122.pdf)] and the Declaration of Helsinki [WMA (1964). Ethical Principles for Medical Research Involving Human Subjects (http://www.wma.net/en/30publications/10policies/b3/). World Medical Association.] Local ethics committees approved the study design and eligible patients gave their written informed consent before participating.
Eligible patients were randomized equally (1:1:1:1) to one of the four treatment arms for a 6-week double-blind treatment period. Randomized patients were given 1-week wallet cards at each visit and were instructed to take two capsules per day, orally, at the same time every day (preferably in the morning). NA-831 was dosed at 20 mg/day or 40 mg/d for 6 week and venlafaxine at 75 mg/d over 6-week treatment period. Efficacy and tolerability were assessed at screening, baseline and after 1, 2, 3, 4, 5, and 6 week. Patients were contacted for a safety follow-up 4 week after the completion visit.
Patients with MDD presenting with a current major depressive episode according to DSM-IV-TR criteria were included in the study if they were an outpatient of either sex, aged from 20 yr to 65 yr, (mean=39.7±8.5) (with a Montgomery—Åsberg Depression Rating Scale (MADRS) (Montgomery & Åsberg, 1979) total score ≥30 at the baseline visit. [Montgomery S Åsberg M (1979). A new depression scale designed to be sensitive to change. British Journal of Psychiatry 134 382-389.https://doi.org/10.1192/bjp.134.4.382]
Patients were evaluated using the MADRS from baseline to week 6. Rater training was undertaken to increase inter-rater reliability, and was supervised by an experienced investigator. Only those investigators who had actively participated in rater training sessions prior to inclusion of patients into the study were allowed to rate patients. Patient ratings were assessed by the same investigator at each visit, whenever possible.
All safety analyses were based on the all-patients-treated set (APT), comprising all randomized patients who took at least one dose of study medication. All efficacy analyses were based on a modified intent-to-treat set (ITT)—the full-analysis set (FAS), comprising all patients in the […] who had at least one valid post-baseline MADRS total score assessment.
Four hypotheses were part of the primary efficacy analysis, which was fully adjusted for multiplicity using a hierarchical testing procedure at the 5% level of significance as long as the previous hypothesis was rejected. The order of testing was: no difference between the 20 mg dose vs. placebo at week 6, no difference between […] at week 6, no difference between 20 mg dose vs. placebo at week 1, and finally no difference between 40 mg dose vs. placebo at week 1. The statistical model was an analysis of covariance (ANCOVA) of the change from baseline in MADRS total score (FAS, LOCF) with treatment and site as fixed factors and the baseline MADRS score as a covariate. The primary efficacy analysis was repeated on observed cases (OC) data, using both an ANCOVA and a mixed model for repeated measurements (MMRM).
All adverse effects (AEs) (including any change in concurrent illnesses or new illnesses) either observed by the investigator or reported spontaneously by the patient were recorded. AEs were coded using the lowest level term according to the Medical Dictionary for Regulatory Activities, version 10.0. As a post-hoc analysis, the safety database was searched at preferred-term and verbatim-term level for possible suicide-related AEs, as described by the FDA [Laughren (2006). Memorandum on Suicidality. (http://www.fda.gov/ohrms/dockets/ac/06/briefing/2006-4272b1-01-fda.pdf)].

Series [2] concerns extracellular levels of serotonin (5-HT), noradrenaline, dopamine, acetylcholine and histamine. Nature of the series: Extracellular neurotransmitter levels in rat prefrontal cortex and hippocampus. The following applies: in vivo.

Molecules are shown by their SMILES.

With `O=C1NCC(=O)N2CCC[C@@H]12` [cPG, cyclic Prolyl Glycine], the “change from baseline in MADRS total score, Mean ± SD” value in series [1] (LOCF, ANCOVA, 20 mg/day orally) was −22.4 ± 1.0; in series [1] (LOCF, ANCOVA, 40 mg/d orally), −23.2 ± 1.0; in series [1] (MMRM, 20 mg/day orally), −22.3 ± 0.9; in series [1] (MMRM, 40 mg/d orally), −24.9 ± 1.1; in series [1] (OC, ANCOVA, 20 mg/day orally), −22.3 ± 0.9; in series [1] (OC, ANCOVA, 40 mg/d orally) it was −24.4 ± 1.0. Besides, the “MADRS total score, Difference to Placebo” value in series [1] (OC, ANCOVA, 20 mg/day orally) is −5.7 ± 1.3; in series [1] (OC, ANCOVA, 40 mg/d orally) it was −7.8 ± 1.3. For the same compound, the tolerability entry in series [1] (human, in vivo) is given as “well tolerated”. Moreover, the “extracellular levels of serotonin (5-HT), noradrenaline, dopamine, acetylcholine and histamine” value in series [2] is reported as “increases”.

Values taken from patent publication US12070458B2, “Therapeutic agent composition and method of use, for treatment of mild congnitive impairment, depression, and psychological disorders” (priority 2018, dated 2024).
